Patent publication US11612606B2, “8-aminoisoquinoline compounds and uses thereof” (priority 2018, dated 2023)
Like-named read-outs stand apart in the source and are kept apart here.

What was measured:
[1] = target: HPK full length, T165E S171E (Homo sapiens (Human), UniProt Q92918, S171E/T165E); assay: HPK1-FL HTRF enzymatic assay ("HTRF"); type: biochemical; settings: ATP 1 mM
How it was run: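 Full-length HPK1 (T165E/S171E) was preincubated 30 min with compound, then reacted 60 min with biotin-SLP-76 and 1 mM ATP. Phospho-SLP-76 was detected by HTRF (Eu-anti-pSLP76 antibody, SA-XL665) after a further 60 min.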

[2] = test system: primary human pan T cells; assay: Human T-cell IL2 induction assay; type: cell-based
Procedure: Assay Principle: Anti-CD3 and anti-CD28 activates TCR signaling in primary human pan T cells leading to IL-2 promoter induction. Secreted IL-2 in cell culture supernatant is detected by electrochemiluminescence using a capture antibody against IL-2 and an anti-IL-2 antibody labeled with SULFO-tag. Also see www.mesoscale.com for additional electrochemiluminescence technology information.
Assay Procedure: Incubate primary human pan T cells with varying concentrations of test compounds for 30 minutes in a humidified incubator at 37° C. and 5% CO2. Transfer cells to a plate pre-coated with a fixed concentration of anti-human CD3 (determined separately for each donor lot) and add soluble anti-human CD28 (final concentration=1 μg/ml). Stimulate cells in a humidified incubator at 37° C. and 5% CO2 for 4 hours. Transfer 25 μl of supernatant to a MSD single spot plate pre-coated with an anti-human IL-2 antibody. Incubate MSD plate overnight at 4° C. with gentle shaking. Wash MSD plate 4× with wash buffer. Add SULFO-tagged detection antibody at a 1:50 dilution and incubate at room temperature shaking for 2 hours. Wash MSD plate 4× with wash buffer and add 150 μl 2×MSD read buffer. Read on an MSD instrument. Normalize data to stimulated/untreated controls to calculate % activity at each concentration of compound.
Instrumentation: • Biomek FX for liquid handling (Beckman Coulter) • MSD SECTOR S 600 (Meso Scale Discovery)
Exemplary compounds of Formula (I) were tested in the human T-cell IL-2 induction assays.

[3] = Hepatocyte stability assay; type: in vitro ADME; settings: cryopreserved human hepatocytes (10 donor pool, suspension), scaled hepatic clearance, read-out: HHep Clearance
Procedure: Metabolic stability of compounds are assessed using a hepatocyte stability assay. Cryopreserved human hepatocytes from a 10 donor pool are quickly thawed at 37° C., suspended in prewarmed In VitroGRO™ HT Medium, and then centrifuged at 100×g at room temperature for 10 min. The supernatants are discarded, and cells are resuspended in 5 mL Dulbecco's Modified Eagle Medium (DMEM) medium. Cell viability in suspension is counted on a Hepatometer® Vision (Lonza, N.C.), and viable cells are then adjusted to […] in DMEM. Compounds are first diluted to 2 μM with DMEM medium, and then aliquots of 125 μL of drug-containing medium are transferred to 96-well non-coated plates. Incubation is initiated by the addition of 125 μL of hepatocyte suspension to yield a total incubation volume of 250 μL. Final concentration of each compound is 1 μM, and final cell density is 0.5×10^6 cells/mL. Incubations are conducted in a humidified incubator at 37° C. Aliquots of 50 μL incubation medium are taken out at different time intervals (0, 60, 120 and 180 min), and immediately mixed with 100 μL of ice-cold acetonitrile containing 50 nM propranolol (internal standard). Samples are then centrifuged at 10,000×g for 10 min, and 80 μL of supernatant is taken out and diluted with 160 μL of water prior to LC/MS-MS analysis.
Human hepatocyte stability was assessed for exemplary compounds of Formula (I) according to the above procedures.

[4] = test system: phosphorylation of SLP-76 (S376) by HPK-1 in human Jurkat cells; assay: pSLP76 assay (sandwich ELISA, anti-CD3 stimulated Jurkat cells); type: cell-based; settings: Homo sapiens, read-out: pSLP76 IC50
Procedure: Phospho-SLP76 (S376) is detected by sandwich ELISA using an anti-pSLP76(S376) capture antibody and a biotinylated anti-SLP76 detection antibody.
Incubate Jurkat cells with varying concentrations of test compounds for 30 minutes in a humidified incubator at 37° C. and 5% CO2. Add anti-CD3 DynaBeads at a 4:1 bead:cell ratio. Stimulate cells in a humidified incubator at 37° C. and 5% CO2 for 10 minutes. Add cold lysis buffer and incubate on a shaker at 4° C. for 30 minutes. Transfer cell lysates to a pre-blocked ELISA plate coated with capture antibody. Incubate at room temperature shaking for 2 hours. Wash ELISA plate 5× with wash buffer and add 25 μl of biotinylated detection antibody at a final concentration of 0.5 μg/ml. Incubate at room temperature shaking for 1 hour. Wash ELISA plate 5× with wash buffer and add 25 μl of streptavidin enzyme conjugate at a final dilution of 1:8000. Incubate at room temperature shaking for 20 minutes. Wash ELISA plate 5× with wash buffer and add 25 μl of TMB substrate solution. Incubate at room temperature in the dark shaking for 20 minutes. Add 25 μl of STOP solution and read on SoftMax Pro for absorbance at 450 nm.
Exemplary compounds of Formula (I) were tested in pSLP76 assays.

[5] = Pharmacokinetic study in rat; type: in vivo, Sprague Dawley rat; settings: male, Sprague Dawley
Procedure: Pharmacokinetic Study in Rat: Male Sprague Dawley rats obtained from Lingchang/Vital River Laboratory Animal Technology Co., Ltd., (Shanghai/Beijing, P.R. China) with body weight ranging between 200 g to 300 g were use in the PK studies. Group of 3 rats were given a 1 mg/kg intravenous bolus (IV) dose of the test article in solution formulation, and another group of 3 rats were given a 2 or 5 mg/kg oral (PO) dose of test article as a 0.5% methylcellulose with 0.2% Tween 80 (MCT) suspension or as a solution. Blood samples (250 μL, per time point) were collected serially via the catheter in femoral artery at 0.033, 0.083, 0.25, 0.5, 1, 2, 4, 6, and 8 hours after IV or PO administration from each of the rat. Blood samples were collected into pre-chilled tubes containing Potassium (K2) EDTA and centrifuged at 3,200 g for 10 minutes at 2 to 8° C. within 1 hour of collection to harvest plasma. Plasma samples were stored at −70° C. until LC/MS/MS analysis. Concentration in each plasma sample was determined by a non-validated LC/MS/MS. Data is acquired using multiple reaction monitoring (MRM) with specific transitions monitored for each compound.
Following PO administration, percent bioavailability (% F) was determined for each animal by dividing the dose normalized area under the plasma concentration-time curve, extrapolated to infinity (AUCinf) obtained following each PO dose by the mean dose normalized AUCinf of the animals dosed by IV injection. All PK parameters are presented as mean±standard deviation (SD).
Pharmacokinetic studies were conducted in rat for exemplary compounds of Formula (I).

[6] = Permeability assay in gMDCKI cells; type: in vitro ADME, canine; settings: dog, MDCK, apical-to-basolateral, 2-hour incubation, read-out: MDCK AB Papp
Procedure: Cell permeability of compounds of interest was assessed in the gMDCKI cell line, which is a modified MDCKI (Madin-Darby canine kidney) originally acquired from American Type Culture Collection (Manassa, Va.) and generated at Genentech. […] Test article was tested at 10 μM in the apical-to-basolateral (A-B) and basolateral-to-apical (B-A) directions. Test compound was dissolved in transport buffer consisting of Hank's balanced salt solution and […] (Invitrogen Corporation, Grand Island, N.Y.). Transepithelial electrical resistance (TEER) and lucifer yellow (LY) permeability were used to monitor monolayer integrity at the beginning and the end of the experiments, respectively. Test articles were analyzed by LC-MS/MS.
The efflux ratio (ER) is calculated as (Papp, B−A/Papp, A−B).
Cell permeability were assessed for exemplary compounds of Formula (I).

[7] = Jurkat cells, anti-CD3 stimulation
[8] = plasma, PO 2 mg/kg, MCT, Suspension

HPK full length, T165E S171E, sequence (Q92918 whole entry T165E/S171E, looked up): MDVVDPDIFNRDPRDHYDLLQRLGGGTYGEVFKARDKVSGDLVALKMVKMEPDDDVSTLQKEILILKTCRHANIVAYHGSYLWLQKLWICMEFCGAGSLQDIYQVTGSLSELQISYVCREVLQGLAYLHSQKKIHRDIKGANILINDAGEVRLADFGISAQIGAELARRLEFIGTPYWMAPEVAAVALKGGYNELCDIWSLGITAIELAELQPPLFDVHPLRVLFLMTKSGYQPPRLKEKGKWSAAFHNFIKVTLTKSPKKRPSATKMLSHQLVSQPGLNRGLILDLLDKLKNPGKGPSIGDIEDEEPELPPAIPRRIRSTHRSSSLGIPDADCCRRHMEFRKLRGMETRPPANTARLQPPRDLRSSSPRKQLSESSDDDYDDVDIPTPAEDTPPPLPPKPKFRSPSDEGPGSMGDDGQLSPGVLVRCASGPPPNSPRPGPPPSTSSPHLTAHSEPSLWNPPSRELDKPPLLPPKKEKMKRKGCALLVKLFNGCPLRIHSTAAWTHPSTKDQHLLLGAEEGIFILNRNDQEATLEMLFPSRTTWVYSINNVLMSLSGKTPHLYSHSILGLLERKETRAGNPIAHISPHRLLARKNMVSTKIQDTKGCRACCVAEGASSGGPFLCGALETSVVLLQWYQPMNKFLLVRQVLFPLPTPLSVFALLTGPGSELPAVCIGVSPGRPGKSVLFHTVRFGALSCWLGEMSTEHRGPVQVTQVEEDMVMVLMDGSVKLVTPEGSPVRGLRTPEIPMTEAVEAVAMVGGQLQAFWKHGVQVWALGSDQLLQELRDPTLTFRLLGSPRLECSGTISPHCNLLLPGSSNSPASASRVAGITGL

Row | SMILES | Ki ([1]; read-out: HPK1 Ki) [nM] | % IL-2 increase relative to untreated cells ([2]; assayed concentration 2.778 μM) [%] | CLhep predicted at 1 μM [3] [mL/min/kg] | IC50 [4, 7] [nM] | Papp at 2 h, 10 μM [6] [×10⁻⁶ cm/s] | further results
1 | Cc1c(-c2cc3cc(NC(=O)O[C@H]4COC[C@@H]4C)ncc3c(N)c2F)cnc2c1NCCO2 (single isomer, unassigned) [Compound 441b] | < 0.013 | 1158 | 6.9 | 36 | 15 | bioavailability ([5]; plasma, PO 2 mg/kg, 10/90 DMSO/MCT, Solution): 30%
2 | Cc1c(-c2cc3cc(NC(=O)O[C@@H]4COC[C@@H]4F)ncc3c(N)c2F)cnc2c1NCCO2 (single isomer, unassigned) [Compound 477d] |  |  | 5.7 | 66 | 16 | Ki ([1]; HPK1 Ki): 0.02 nM; % IL-2 increase relative to untreated cells ([2]; assayed concentration 8.33 μM): 1745%; bioavailability ([5]; plasma, PO 2 mg/kg, 10% DMSO/60% PEG400/30% Water, Solution): 43%
3 | Cc1c(-c2cc3cc(NC(=O)O[C@@H]4CCC[C@H]4C#N)ncc3c(N)c2F)cnc2c1NCCO2 (single isomer, unassigned) [Compound 482a] | < 0.013 | 737 | 11 | 38 | 15 | bioavailability ([5]; plasma, PO 5 mg/kg, MCT, pH = 2.5, Suspension): 41%
4 | Cc1c(-c2cc3cc(NC(=O)O[C@H]4CCO[C@H]4C)ncc3c(N)c2F)cnc2c1NCCO2 (single isomer, unassigned) [Compound 510c] | < 0.013 | 700 | 8.7 |  | 20 | IC50 ([4]; Jurkat): 62 nM; bioavailability [5, 8]: 28%
5 | CO[C@H]1COC[C@@H]1OC(=O)Nc1cc2cc(-c3cnc4c(c3C)NCCO4)c(F)c(N)c2cn1 (single isomer, unassigned) [Compound 546a] | < 0.013 |  | 6.5 | 62 | 10 | % IL-2 increase relative to untreated cells ([2]; assayed concentration 8.33 μM): 914%; bioavailability ([5]; plasma, PO 5 mg/kg, 10% DMSO/35% PEG400/55% Water, Solution): 22%
6 | CCc1c(-c2cc3cc(NC(=O)O[C@@H]4COC[C@H]4C)ncc3c(N)c2F)cnc2c1NCCO2.Cl (single isomer, unassigned) [Compound 555b, (3S,4R)-4-Methyltetrahydrofuran-3-yl (8-amino-6-(8-ethyl-2,3-dihydro-1H-pyrido[2,3-b][1,4]oxazin-7-yl)-7-fluoroisoquinolin-3-yl)carbamate hydrochloride] |  |  |  |  | 15 | bioavailability ([5]; in vivo, PO 2 mg/kg, 10% DMSO/60% PEG400/30% Water, Solution): 34%
7 | CCc1c(-c2cc3cc(NC(=O)O[C@@H]4COC[C@H]4C)ncc3c(N)c2F)cnc2c1NCCO2.Cl (single isomer, unassigned) [Compound 555b, hydrochloride] | < 0.013 |  | 13 | 24 |  | 
8 | Cc1c(-c2cc3cc(NC(=O)OC4CCOCC4)ncc3c(N)c2F)cnc2c1NCCO2 [Compound 401, Tetrahydropyran-4-yl N-[8-amino-7-fluoro-6-(8-methyl-2,3-dihydro-1H-pyrido[2,3-b][1,4]oxazin-7-yl)-3-isoquinolyl]carbamate] | 0.019 |  | 9.2 |  | 18 | IC50 ([4]; Jurkat): 97 nM; bioavailability ([5]; plasma, PO 5 mg/kg, MCT, Suspension): 16%
9 | Cc1c(-c2cc3cc(NC(=O)O[C@@H]4CCOC4)ncc3c(N)c2F)cnc2c1NCCO2 [Compound 403a, (R)-Tetrahydrofuran-3-yl (8-amino-7-fluoro-6-(8-methyl-2,3-dihydro-1H-pyrido[2,3-b][1,4]oxazin-7-yl)isoquinolin-3-yl)carbamate] |  |  | 7.7 | 48 | 10 | Ki ([1]; HPK1 Ki): < 0.013 nM; bioavailability ([5]; plasma, PO 5 mg/kg, 10/90 DMSO/MCT, Suspension): 4%
10 | Cc1c(-c2cc3cc(NC(=O)O[C@H]4C[C@H](C#N)C4)ncc3c(N)c2F)cnc2c1NCCO2 [Compound 484b, (1r,3r)-(3-Cyanocyclobutyl) N-[8-amino-7-fluoro-6-(8-methyl-2,3-dihydro-1H-pyrido[2,3-b][1,4]oxazin-7-yl)-3-isoquinolyl]carbamate] | 0.015 | 1782 | 7.9 | 26 | 19 | bioavailability ([5]; plasma, PO 5 mg/kg, 10% DMSO/60% PEG400/30% Water, Solution): 16%
11 | CNc1cncc(-c2cc3cc(NC(=O)OC4CC(C)(O)C4)ncc3c(N)c2F)c1C (centres unmarked) [Compound 527, 3-Hydroxy-3-methylcyclobutyl(8-amino-7-fluoro-6-(4-methyl-5-(methylamino)pyridin-3-yl)isoquinolin-3-yl)carbamate] |  | 738 | 11 |  | 13 | IC50 ([4]; Jurkat): 64 nM; bioavailability [5, 8]: 12%
